Several values for one entry are separate records, joined by “and”; a condition that tells them apart may be missing. Identical values can stand only once.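 Briefly, cells in 96-well plates were exposed to five compound concentrations for 48 h, and endpoints were estimated by linear interpolation. Here, GI50 denotes the concentration required for 50% inhibition of growth. Definition used: TGI = concentration required for complete inhibition of growth.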
Columns and labels:
Assay in all cases: NCI-60 cell line screen, 48 h
NCI-H460 lung = system: NCI-H460 lung
SW-620 colon = system: SW-620 colon
M19-MEL melanoma = system: M19-MEL melanoma
XF 498 CNS = system: XF 498 CNS
SK-MEL-5 melanoma = system: SK-MEL-5 melanoma
BT-549 breast = system: BT-549 breast
NCI-H522 lung = system: NCI-H522 lung
DU-145 prostate = system: DU-145 prostate
SNB-75 CNS = system: SNB-75 CNS
UO-31 renal = system: UO-31 renal

SMILES	GI50 (NCI-H460 lung)	TGI (NCI-H460 lung)	GI50 (SW-620 colon)	TGI (SW-620 colon)	TGI (M19-MEL melanoma)	TGI (XF 498 CNS)	GI50 (SK-MEL-5 melanoma)	TGI (SK-MEL-5 melanoma)	GI50 (BT-549 breast)	TGI (BT-549 breast)	GI50 (NCI-H522 lung)	TGI (NCI-H522 lung)	GI50 (DU-145 prostate)	TGI (DU-145 prostate)	GI50 (SNB-75 CNS)	TGI (SNB-75 CNS)	GI50 (UO-31 renal)	TGI (UO-31 renal)	GI50 (M19-MEL melanoma)	GI50 (XF 498 CNS)
CSc1nc(NC2OC(COC(C)=O)C(OC(C)=O)C(OC(C)=O)C2OC(C)=O)c(N=CC=Nc2c(NC3OC(COC(C)=O)C(OC(C)=O)C(OC(C)=O)C3OC(C)=O)nc(SC)n(C)c2=O)c(=O)n1C (stereo unspecified)	> 50 µM	> 100 µM	> 50 µM	> 100 µM	> 100 µM	30.3 µM	> 50 µM	> 100 µM	37.5 µM	50 µM and > 100 µM	> 50 µM	> 100 µM	> 50 µM	> 100 µM	8.97 µM	25.4 µM and 24.3 µM	> 50 µM	> 100 µM	–	–
C=COC(=O)N[C@H]1CCc2cc(OC)c(OC)c(OC)c2-c2ccc(SC)c(=O)cc21	–	0.991 µM	–	> 100 µM	> 100 µM	> 62.3 µM	–	0.097 µM	–	< 0.01 µM	–	< 0.01 µM	–	< 0.01 µM	–	14.4 µM	–	74.9 µM	–	–
Nc1ccn(C2OC(CO)C(O)C2O)c(=O)n1 (stereo unspecified)	0.114 µM and 0.231 µM and 0.12 µM	> 100 µM and 418 µM	0.847 µM	> 100 µM and 462 µM and > 500 µM	> 500 µM	> 494 µM	2.89 µM	–	7.08 µM	> 500 µM	–	> 500 µM	0.536 µM	–	–	> 500 µM	0.715 µM	–	15.6 µM	–
C/C(=N\NC(=S)N1CCCCCC1)c1ccccn1	0.0421 µM	1.47 µM and 2.22 µM	< 0.0204 µM	1.85 µM and 4.74 µM	1.06 µM and 0.687 µM	–	0.0209 µM	1.09 µM and 0.741 µM	–	1.76 µM	0.109 µM	0.623 µM and 1.39 µM	0.408 µM	6.29 µM and 3.25 µM	0.277 µM	1.18 µM and 2.54 µM	0.134 µM	4.01 µM and 4.33 µM	0.109 µM	0.0141 µM
COc1ccc2c(c1)c[n+](C)c1c3cc(OC)c(OC)cc3ccc21	1.23 µM and 2.7 µM	2.72 µM and 10.9 µM	–	3.13 µM and 3.76 µM	15.8 µM	17.1 µM	4.08 µM and 8.31 µM	15.1 µM and 20.2 µM	2.4 µM and 10.2 µM	9.63 µM and 26.2 µM	–	2.33 µM and 4.34 µM	3.1 µM and 8.21 µM	11.4 µM and 21.3 µM	6.66 µM	20 µM	2.22 µM and 9.28 µM	5.13 µM and 22.5 µM	–	–
COc1cc2c3c(c1OC)-c1cc4c(cc1CC3(C#N)N(C(=O)c1ccccc1)CC2)OCO4 (stereo unspecified)	–	> 100 µM	–	> 100 µM	> 100 µM	24.8 µM	–	> 100 µM	–	> 100 µM	–	81.2 µM	–	> 100 µM	–	28.1 µM	–	> 94.1 µM	–	–
COC12C(COC(N)=O)C3=C(C(=O)C(C)=C(N)C3=O)N1CC1C2N1C (stereo unspecified)	–	1.86 µM	–	35.8 µM	24.7 µM	21 µM	–	9.19 µM	–	28.3 µM	–	25.4 µM	–	15.3 µM	–	11.8 µM	–	32.6 µM	–	–
